Patent publication US20250313549A1, “HERBICIDAL DERIVATIVES” (SYNGENTA CROP PROTECTION AG, priority 2021, published 2025)

Columns and labels:
Format in all cases: in vivo
[1] = test system: Amaranthus retoflexus (AMARE); assay: Pre-emergence test, herbicidal damage; details: 1000 g/ha, evaluated after 13 days
[2] = test system: Echinochloa crus-galli (ECHCG); assay: Pre-emergence test, herbicidal damage; details: 1000 g/ha, evaluated after 13 days
[3] = test system: Amaranthus palmeri (AMAPA); assay: Pre-emergence test, herbicidal damage; details: 1000 g/ha, evaluated after 13 days
Setaria faberi (SETFA) [4] = assay: Pre-emergence test, herbicidal damage; details: 1000 g/ha, evaluated after 13 days
Zea mays (ZEAMX) [5] = assay: Pre-emergence test, herbicidal damage; details: 1000 g/ha, evaluated after 13 days
[6] = test system: Ipomoea hederacea (IPOHE); assay: Pre-emergence test, herbicidal damage; details: 1000 g/ha, evaluated after 13 days
[7] = test system: Amaranthus palmeri (AMAPA); assay: Post-emergence test, herbicidal damage; details: sprayed after 8 days cultivation, 1000 g/ha, evaluated after 13 days
Procedure: (§1) Seeds of a variety of test species are sown in standard soil in pots (Amaranthus retoflexus (AMARE), Echinochloa crus-galli (ECHCG), Amaranthus palmeri (AMAPA), Setaria faberi (SETFA), Zea mays (ZEAMX), Ipomoea hederacea (IPOHE)). After 8 days cultivation under controlled conditions in a glasshouse (at 24° C./16° C., day/night; 14 hours light; 65% humidity), the plants are sprayed with an aqueous spray solution derived from the formulation of the technical active ingredient in acetone/water (50:50) solution containing 0.5% Tween 20 (polyoxyethylene sorbitan monolaurate, CAS RN 9005-64-5). Compounds are applied at 1000 g/ha unless otherwise stated. The test plants are then grown in a glasshouse under controlled conditions in a glasshouse (at 24° C./16° C., day/night; 14 hours light; 65% humidity) and watered twice daily. After 13 days the test is evaluated for the percentage damage caused to the plant. The biological activities are shown in the following table on a five-point scale (5=81-100%; 4=61-80%; 3=41-60%; 2=21-40%; 1=10-20%; 0=0%; -=not tested).

[8] = test system: Amaranthus retoflexus (AMARE); assay: Post-emergence test, herbicidal damage; details: sprayed after 8 days cultivation, 1000 g/ha, evaluated after 13 days
Procedure: as §1

[9] = test system: Echinochloa crus-galli (ECHCG); assay: Post-emergence test, herbicidal damage; details: sprayed after 8 days cultivation, 1000 g/ha, evaluated after 13 days
Procedure: as §1

[10] = test system: Ipomoea hederacea (IPOHE); assay: Post-emergence test, herbicidal damage; details: sprayed after 8 days cultivation, 1000 g/ha, evaluated after 13 days
Procedure: as §1

Setaria faberi (SETFA) [11] = assay: Post-emergence test, herbicidal damage; details: sprayed after 8 days cultivation, 1000 g/ha, evaluated after 13 days
Procedure: as §1

Zea mays (ZEAMX) [12] = assay: Post-emergence test, herbicidal damage; details: sprayed after 8 days cultivation, 1000 g/ha, evaluated after 13 days
Procedure: as §1

Row | Structure (SMILES) | percentage damage caused to the plant, AMARE [1] | percentage damage caused to the plant, ECHCG [2] | percentage damage caused to the plant, AMAPA [3] | percentage damage caused to the plant, SETFA (Setaria faberi (SETFA) [4]) | percentage damage caused to the plant, ZEAMX (Zea mays (ZEAMX) [5]) | percentage damage caused to the plant, IPOHE [6] | percentage damage caused to the plant, AMAPA [7] | percentage damage caused to the plant, AMARE [8] | percentage damage caused to the plant, ECHCG [9] | percentage damage caused to the plant, IPOHE [10] | percentage damage caused to the plant, SETFA (Setaria faberi (SETFA) [11]) | percentage damage caused to the plant, ZEAMX (Zea mays (ZEAMX) [12])
1 | N#Cc1cccc2c1c(=O)c(C(=O)O)nn2-c1cncnc1 [Compound 1, 5-cyano-4-oxo-1-pyrimidin-5-yl-cinnoline-3-carboxylic acid] | 0 (0=0%) | 2 (2=21-40%) | 0 (0=0%) | 0 (0=0%) | 0 (0=0%) | 0 (0=0%) | 1 (1=10-20%) | 2 (2=21-40%) | 2 (2=21-40%) | 1 (1=10-20%) | 1 (1=10-20%) | 1 (1=10-20%)
2 | CCOC(=O)c1nn(-c2ccnc(Br)c2)c2cccc(Br)c2c1=O [Compound 10, ethyl 5-bromo-1-(2-bromo-4-pyridyl)-4-oxo-cinnoline-3-carboxylate] | 1 (1=10-20%) | – | 0 (0=0%) | 0 (0=0%) | 0 (0=0%) | 0 (0=0%) | 3 (3=41-60%) | 3 (3=41-60%) | 1 (1=10-20%) | 0 (0=0%) | 0 (0=0%) | 0 (0=0%)
3 | CCOC(=O)c1nn(-c2ccc(F)nc2)c2cccc(Br)c2c1=O [Compound 23, ethyl 5-bromo-1-(6-fluoro-3-pyridyl)-4-oxo-cinnoline-3-carboxylate] | 0 (0=0%) | 5 (5=81-100%) | 0 (0=0%) | 4 (4=61-80%) | 0 (0=0%) | 1 (1=10-20%) | 0 (0=0%) | 0 (0=0%) | 4 (4=61-80%) | 0 (0=0%) | 4 (4=61-80%) | 1 (1=10-20%)
4 | CCOC(=O)c1nn(-c2cc(OC)ncn2)c2cccc(Br)c2c1=O [Compound 32, ethyl 5-bromo-1-(6-methoxypyrimidin-4-yl)-4-oxo-cinnoline-3-carboxylate] | 0 (0=0%) | 1 (1=10-20%) | 0 (0=0%) | 1 (1=10-20%) | 0 (0=0%) | 0 (0=0%) | 1 (1=10-20%) | 1 (1=10-20%) | 0 (0=0%) | 1 (1=10-20%) | 0 (0=0%) | 0 (0=0%)
5 | CCOC(=O)c1nn(-c2ncc(Cl)cn2)c2cccc(Br)c2c1=O [Compound 34, ethyl 5-bromo-1-(5-chloropyrimidin-2-yl)-4-oxo-cinnoline-3-carboxylate] | 0 (0=0%) | 0 (0=0%) | 1 (1=10-20%) | 1 (1=10-20%) | 0 (0=0%) | 0 (0=0%) | 1 (1=10-20%) | 3 (3=41-60%) | 0 (0=0%) | 3 (3=41-60%) | 2 (2=21-40%) | 1 (1=10-20%)
6 | CCOC(=O)c1nn(-c2ccc(OC(F)F)nc2)c2cccc(Br)c2c1=O [Compound 36, ethyl 5-bromo-1-[6-(difluoromethoxy)-3-pyridyl]-4-oxo-cinnoline-3-carboxylate] | 0 (0=0%) | 0 (0=0%) | 1 (1=10-20%) | 1 (1=10-20%) | 1 (1=10-20%) | 0 (0=0%) | 0 (0=0%) | 2 (2=21-40%) | 0 (0=0%) | 1 (1=10-20%) | 1 (1=10-20%) | 0 (0=0%)
7 | CCOC(=O)c1nn(-c2ccc(OC(F)F)nc2)c2cccc(C(C)=O)c2c1=O [Compound 37, ethyl 5-acetyl-1-[6-(difluoromethoxy)-3-pyridyl]-4-oxo-cinnoline-3-carboxylate] | 0 (0=0%) | 4 (4=61-80%) | 0 (0=0%) | – | 4 (4=61-80%) | 0 (0=0%) | 0 (0=0%) | 1 (1=10-20%) | 4 (4=61-80%) | 2 (2=21-40%) | 1 (1=10-20%) | –
8 | CCOC(=O)c1nn(-c2ccnc(OC(F)F)c2)c2cccc(C(C)=O)c2c1=O [Compound 40, ethyl 5-acetyl-1-[2-(difluoromethoxy)-4-pyridyl]-4-oxo-cinnoline-3-carboxylate] | 0 (0=0%) | 3 (3=41-60%) | 0 (0=0%) | – | 0 (0=0%) | 0 (0=0%) | 0 (0=0%) | 1 (1=10-20%) | 4 (4=61-80%) | 1 (1=10-20%) | 1 (1=10-20%) | –
9 | CCOC(=O)c1nn(-c2ccnc(OC(F)F)c2)c2cccc(/C(C)=N\OC)c2c1=O [Compound 41, ethyl 1-[2-(difluoromethoxy)-4-pyridyl]-5-[(Z)—N-methoxy-C-methyl-carbonimidoyl]-4-oxo-cinnoline-3-carboxylate] | 0 (0=0%) | 4 (4=61-80%) | 0 (0=0%) | – | 1 (1=10-20%) | 0 (0=0%) | 1 (1=10-20%) | 1 (1=10-20%) | 2 (2=21-40%) | 1 (1=10-20%) | 1 (1=10-20%) | –
